Results as given in US7678918B2, “Intermediates for imidazonaphthyridines” (3M Innovative Properties Company, priority 1997, dated 2010).

Experiments:
TNF = assay: Cytokine Induction in Human Cells: tumor necrosis factor (TNF) secreted by PBMCs, ELISA; type: cell-based; conditions: 18 to 24 hours; further: call rule not given here
Summary of the method: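 Human donor PBMCs at 1.5-2×10^6 cells/mL in RPMI with 10% FBS were exposed to compound, generally at 0.1 to 100 μM (≤1% DMSO final), for 18 to 24 h at 37 °C. Secreted TNF in supernatant was measured by ELISA and reported as pg/mL.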

IFN = assay: Cytokine Induction in Human Cells: interferon (IFN) secreted by PBMCs, A549/encephalomyocarditis bioassay; type: cell-based; conditions: 18 to 24 hours; further: call rule not given here
Summary of the method: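 Human PBMCs from healthy donors at 1.5-2×10^6 cells/mL in RPMI with 10% FBS, exposed to compounds (typically 0.1 to 100 μM, ≤1% DMSO) for 18 to 24 h at 37° C. Secreted IFN measured by A549/encephalomyocarditis virus cytopathic-effect bioassay, in alpha reference units/mL against NIH human leukocyte IFN standard.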

interferon α = assay: Interferon (α) Induction in Human Cells (PBM's, 48 hours, A549 bioassay); type: cell-based; design: key: +: indicates that the compound induced interferon α at that particular concentration; −: indicates that the compound did not induce interferon α at that particular concentration; ±: indicates that the results were equivocal at that particular concentration; conditions: 48 hours incubation
Protocol: An in vitro human blood cell system was used to assess interferon induction by compounds of the invention. Activity is based on the measurement of interferon secreted into culture media. Interferon is measured by bioassay.
Whole blood was collected by venipuncture into EDTA vacutainer tubes. Peripheral blood mononuclear cells (PBM's) were separated from whole blood by using either LeucoPREP™ Brand Cell Separation Tubes (available from Becton Dickinson) or Ficoll-Paque® solution (available from Pharmacia LKB Biotechnology Inc, Piscataway, N.J.). The PBM's were suspended at 1×10^6/mL in RPMI 1640 media (available from GIBCO, Grand Island, N.Y.) containing 25 mM HEPES (N-2-hydroxyethylpiperazine-N′-2-ethanesulfonic acid) and L-glutamine (1% penicillin-streptomycin solution added) with 10% heat inactivated (56° C. for 30 minutes) autologous serum added. 200 μL portions of PBM suspension were added to 96 well (flat bottom) MicroTest III sterile tissue culture plates.
The compounds were solubilized in ethanol, dimethyl sulfoxide or tissue culture water then diluted with tissue culture water, 0.01N sodium hydroxide or 0.01N hydrochloric acid (The choice of solvent will depend on the chemical characteristics of the compound being tested.). Ethanol or DMSO concentration should not exceed a final concentration of 1% for addition to the culture wells. Compounds were initially tested in a concentration range of from about 0.1 μg/mL to about 5 μg/mL. Compounds which show induction at a concentration of 0.5 μg/mL were then tested in a wider concentration range.
The solution of test compound was added in a volume (less than or equal to 50 μL) to the wells containing 200 μL of diluted whole blood or of PBM's in media. Solvent and/or media was added to control wells (wells with no test compound) and as needed to adjust the final volume of each well to 250 μL. The plates were covered with plastic lids, vortexed gently and then incubated for 48 hours at 37° C. with a 5% carbon dioxide atmosphere.
Following incubation, the plates were covered with parafilm and then centrifuged at 1000 rpm for 10 to 15 minutes at 4° C. in a Damon IEC Model CRU-5000 centrifuge. Media (about 200 μL) was removed from 4 to 8 wells and pooled into 2 mL sterile freezing vials. Samples were maintained at −70° C. until analysis.
Interferon was determined by bioassay using A549 human lung carcinoma cells challenged with encephalomyocarditis. The details of the bioassay method have been described by G. L. Brennan and L. H. Kronenberg in “Automated Bioassay of Interferons in Micro-test Plates”, Biotechniques, June/July 78, 1983, incorporated herein by reference. Briefly stated the method is as follows: interferon dilutions and A549 cells are incubated at 37° C. for 12 to 24 hours. The incubated cells are infected with an inoculum of encephalomyocarditis virus. The infected cells are incubated for an additional period at 37° C. before quantifying for viral cytopathic effect. The viral cytopathic effect is quantified by staining followed by spectrophotometric absorbance measurements. Results are expressed as alpha reference units/mL based on the value obtained for NIH HU IF-L standard. The interferon was identified as essentially all interferon alpha by testing in checkerboard neutralization assays against rabbit anti-human interferon (beta) and goat anti-human interferon (alpha) using A549 cell monolayers challenged with encephalomyocarditis virus.

Row | SMILES | melting point | TNF induction (TNF; Dose Concentration 1.0 μM) | TNF induction (TNF; Dose Concentration 10.0 μM) | TNF induction (TNF; Dose Concentration 100.0 μM) | IFN induction (IFN; Dose Concentration 1.0 μM) | IFN induction (IFN; Dose Concentration 10.0 μM) | IFN induction (IFN; Dose Concentration 100.0 μM) | Interferon (α) Induction in Human Cells (interferon α; Dose Concentration 0.01 μg/mL) | Interferon (α) Induction in Human Cells (interferon α; Dose Concentration 0.05 μg/mL) | Interferon (α) Induction in Human Cells (interferon α; Dose Concentration 0.10 μg/mL) | Interferon (α) Induction in Human Cells (interferon α; Dose Concentration 0.50 μg/mL) | Interferon (α) Induction in Human Cells (interferon α; Dose Concentration 1.0 μg/mL) | Interferon (α) Induction in Human Cells (interferon α; Dose Concentration 5.0 μg/mL) | Interferon (α) Induction in Human Cells (interferon α; Dose Concentration 10.0 μg/mL) | Interferon (α) Induction in Human Cells (interferon α; Dose Concentration 25.0 μg/mL) | Interferon (α) Induction in Human Cells (interferon α; Dose Concentration 50.0 μg/mL) | TNF induction (TNF; Dose Concentration 0.1 μM) | IFN induction (IFN; Dose Concentration 0.1 μM)
1 | Cc1nc2cnc3cccnc3c2n1CC(C)C [Example 34, 2-Methyl-1-(2-methylpropyl)-1H-imidazo[4,5-c][1,5]naphthyridine] | 118 to 119 °C |  |  |  |  |  |  |  |  |  |  |  |  |  |  |  |  | 
2 | CC(C)CNc1c([N+](=O)[O-])c2nnnn2c2cnccc12 [Example 19, N^5-(2-Methylpropyl)-4-nitrotetrazolo[1,5-a][1,7]naphthyridin-5-amine] | 173 to 174 °C |  |  |  |  |  |  |  |  |  |  |  |  |  |  |  |  | 
3 | CCCCc1nc2c(N)nc3cccnc3c2n1CCNC(=O)C1CCC(=O)N1 (centres unmarked) [Example 213] | 135 to 138 °C |  |  |  |  |  |  |  |  |  |  |  |  |  |  |  |  | 
4 | Cc1nnnn1-c1ncccc1C(=O)O [Example 1, 2-(5-Methyl-1H-tetrazol-1-yl)nicotinic Acid] | 178 to 180 °C |  |  |  |  |  |  |  |  |  |  |  |  |  |  |  |  | 
5 | CC(C)OCCCNc1c([N+](=O)[O-])cnc2cccnc12 [Example 71, N^4-(3-Isopropoxypropyl)-3-nitro[1,5]naphthyridin-4-amine] | 62.5 to 63.5 °C |  |  |  |  |  |  |  |  |  |  |  |  |  |  |  |  | 
6 | CCCCOCCCn1c(CCCC)nc2cnc3cccnc3c21 [Example 78, 1-(3-Butoxypropyl)-2-butyl-1H-imidazo[4,5-c][1,5]naphthyridine] | 56.5 to 57.5 °C |  |  |  |  |  |  |  |  |  |  |  |  |  |  |  |  | 
7 | CC(C)Cn1nnn2c3ncccc3c3ncnc-3c12 [Example 8, 1-(2-Methylpropyl)-1H-tetrazolo[1,5-a]imidazo[4,5-c][1,8]naphthyridine] | 248 to 250 °C (dec.) |  |  |  |  |  |  |  |  |  |  |  |  |  |  |  |  | 
8 | Clc1cc2nnnn2c2ncccc12 [Example 4, 5-Chlorotetrazolo[1,5-a][1,8]naphthyridine] | 229 to 230 °C (dec.) |  |  |  |  |  |  |  |  |  |  |  |  |  |  |  |  | 
9 | CCCCc1nc2c(N)nc3c(c2n1CC(C)C)CCCN3 [Example 13, 2-Butyl-6,7,8,9-tetrahydro-1-(2-methylpropyl) 1H-imidazo[4,5-c][1,8]naphthyridin-4-amine] |  | + | + | + | + | + | + | − | + | + | + | + | + | + | + | + |  | 
10 | CC(C)(C)OC(=O)NCCCCNc1c([N+](=O)[O-])cnc2cccnc12 [Example 41, 1,1-Dimethylethyl N-{4-[(3-Nitro[1,5]naphthyridin-4-yl)amino]butyl}carbamate] | 137 to 138 °C |  |  |  |  |  |  |  |  |  |  |  |  |  |  |  |  | 
11 | CCCCc1nc2c(N)nc3ncccc3c2n1CC(C)C [Example 12, 2-Butyl-1-(2-methylpropyl)-1H-imidazo[4,5-c][1,8]naphthyridin-4-amine] |  | + | + | + | + | + | + | − | − | + | + | + | + | + | + | + |  | 
12 | CCCCc1nc2c(N)nc3c(c2n1CC(C)C)NCCC3 [Example 40, 6,7,8,9-Tetrahydro-2-butyl-1-(2-methylpropyl)-1H-imidazo[4,5-c][1,5]naphthyridin-4-amine] |  | + | + | + | + | + | ± | − | + | + | + | + | + | + | + | + |  | 
13 | CCCCc1nc2c(N)nc3cccnc3c2n1CC(C)C [Example 39, 2-Butyl-1-(2-methylpropyl)-1H-imidazo[4,5-c][1,5]naphthyridin-4-amine] |  | + | + | − | + | + | − | − | − | + | + | + | + | + | + | + |  | 
14 | CC(C)Cn1cnc2c(N)nc3ncccc3c21 [Example 9, 1-(2-Methylpropyl)-1H-imidazo[4,5-c][1,8]naphthyridin-4-amine hydrate] |  | − | − | − | − | + | − | − | − | − | − | − | − | − | − | − | − | ±
15 | CCCCc1nc2c(N)nc3cccnc3c2n1CCCCNC(=O)c1ccco1 [Example 51, N-[4-(4-Amino-2-butyl-1H-imidazo[4,5-c][1,5]naphthyridin-1-yl)butyl]-2-furamide] |  | + | + | − | + | + | + |  |  |  |  |  |  |  |  |  |  | 
16 | CCCCc1nc2c(N)nc3cccnc3c2n1CCNC(=O)CCCCC(=O)OC [Example 145] |  | + | + | + | − | + | + |  |  |  |  |  |  |  |  |  | − | −
17 | CCCCc1nc2c(N)nc3cccnc3c2n1CCNC(=O)c1ccc([N+](=O)[O-])o1 [Example 146] |  | + | + | + | + | + | − |  |  |  |  |  |  |  |  |  | + | +
18 | CCCCc1nc2c(N)nc3cccnc3c2n1CCNC(=O)c1ccc(Br)s1 [Example 204] |  | + | + | + | + | + | + |  |  |  |  |  |  |  |  |  | − | +
